The results in this text go back to US20220213052A1, “INHIBITORS OF RNA-BINDING PROTEINS, COMPOSITIONS THEREOF, AND THERAPEUTIC USES THEROF” (The University of North Carolina at Chapel Hill, priority 2019, published 2022).

Experiment [1] deals with T1, full-length human HuR protein (Homo sapiens, UniProt Q15717).
T1 construct: full-length human HuR protein was produced by the KU COBRE-PSF Protein Purification Group; made in house
In words: FP assay of HuR-Msi1 ARE binding inhibition. The note with it: HuR-Msi1 ARE interaction; read-out: HuR Ki via FP assay. The source says: A fluorescence polarization (FP)-based binding assay was utilized to assess the inhibition of HuR protein interaction with the ARE site of Msi1 mRNA (“HuR-Msi1^ARE”) by compounds of interest. Briefly, full-length human HuR protein was produced by the KU COBRE-PSF Protein Purification Group and Bcl2, Msi1 and XIAP mRNA sequences (16 nt) were designed based on literature precedent^23,24,31,32. Fluorescein labeled RNAs were purchased from Dharmacon with the following sequences: Msi1 RNA: 5′-[…]-3′-fluorescein; Bcl-2 RNA: 5′-[…]-3′-fluorescein; XIAP RNA: 5′-[…] UGUC-3′-fluorescein, and a 16-nt degenerative RNA with 3′-fluorescein label was used as a negative control.
(§1) With the FP assay of HuR-Msi1ARE binding, the inhibition of the HuR-Msi1ARE interaction by various compounds of the present technology was assessed. Similar FP assays for Musashi 2 (Msi2) and for RNA-binding protein Lin-28 homolog B (LIN28B) were also performed on various compounds of the present technology. The results of such assays for HuR are provided in Table 1 alongside the compound structures as well as ID numbers for ease of reference; the results of such assays for Msi1, Msi2, and LIN28B are provided in Table 2.

In experiment [2] the test system is triple-negative breast cancer cell line MDA-MB-231. Kind of experiment: Cytotoxicity assay (WST-8), MDA-MB-231. Conditions: Homo sapiens, 96 h incubation. The class given is cell-based. The method, then:
The cytotoxicity of various compounds of the present technology in several cancer cell lines (pancreatic cancer cell line MIAPaCa-2, triple-negative breast cancer cell line MDA-MB-231, and colon cancer cell lines HCT116, HCT116 β/W, and RKO) was assessed by a cytotoxicity assay. Cells were seeded in 96-well culture plates (3,000-5,000 cells/well) and treated with titrated compounds in triplicate. After 96 h incubation, cell growth medium was removed and proliferation reagent WST-8 (Sigma) was added to each well and incubated at 37° C. for 1-3 h. Absorbance was then measured with a plate reader at 450 nm with correction at 650 nm. The results were expressed as the percentage of absorbance of treated wells versus that of vehicle control. IC50, the drug concentration causing 50% growth inhibition, was calculated via sigmoid curve fitting using GraphPad Prism 5.0. The results for those compounds tested against MIAPaCa-2 and MDA-MB-231 are provided in Table 1; the results for those compounds tested against colon cancer cell lines HCT116, HCT116 β/W, and RKO are provided in Table 3.
In general terms: Formazan colour is commonly taken as a measure of viable cells.

For experiment [3], the target named is T2, RNA-binding protein Lin-28 homolog B (LIN28B) (Homo sapiens, UniProt Q6ZN17).
T2 sequence (Q6ZN17 1-250): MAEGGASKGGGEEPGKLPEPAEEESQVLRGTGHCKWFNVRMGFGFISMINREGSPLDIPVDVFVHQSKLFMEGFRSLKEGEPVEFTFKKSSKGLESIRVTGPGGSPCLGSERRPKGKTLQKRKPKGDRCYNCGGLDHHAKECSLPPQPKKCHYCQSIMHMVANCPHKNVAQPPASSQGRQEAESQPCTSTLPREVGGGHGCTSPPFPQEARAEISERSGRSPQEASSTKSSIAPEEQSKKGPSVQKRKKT
Kind of experiment: LIN28B FP assay. The method, then:
as §1

A further experiment has as its target Musashi 2 (Msi2) (Homo sapiens, UniProt Q96DH6). In words: Msi2 FP assay. The class given is binding. As to the method: as §1
[4] abbreviates: cell marked (RRM1), read-out: Msi2 (Ki) (RRM1).
Where [5] appears, read: cell without (RRM1) mark, read-out: Msi2 (Ki).

Each structure is given as a SMILES string. Where a name gives a salt, the structure may show the parent alone. Read-outs that look alike come from different tables or passages of the source. Bounds are passed on as bounds.

T1 sequence (Q15717 whole entry): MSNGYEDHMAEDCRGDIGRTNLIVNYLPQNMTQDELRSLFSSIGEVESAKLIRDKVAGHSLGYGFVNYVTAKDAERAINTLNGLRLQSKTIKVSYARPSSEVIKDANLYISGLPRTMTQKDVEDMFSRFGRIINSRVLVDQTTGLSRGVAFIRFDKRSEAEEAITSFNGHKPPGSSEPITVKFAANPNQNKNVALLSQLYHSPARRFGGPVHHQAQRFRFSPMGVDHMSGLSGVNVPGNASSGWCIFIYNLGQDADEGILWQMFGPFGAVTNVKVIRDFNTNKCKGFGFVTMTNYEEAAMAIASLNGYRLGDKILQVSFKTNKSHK
Musashi 2 (Msi2), sequence (Q96DH6 whole entry, species assumed): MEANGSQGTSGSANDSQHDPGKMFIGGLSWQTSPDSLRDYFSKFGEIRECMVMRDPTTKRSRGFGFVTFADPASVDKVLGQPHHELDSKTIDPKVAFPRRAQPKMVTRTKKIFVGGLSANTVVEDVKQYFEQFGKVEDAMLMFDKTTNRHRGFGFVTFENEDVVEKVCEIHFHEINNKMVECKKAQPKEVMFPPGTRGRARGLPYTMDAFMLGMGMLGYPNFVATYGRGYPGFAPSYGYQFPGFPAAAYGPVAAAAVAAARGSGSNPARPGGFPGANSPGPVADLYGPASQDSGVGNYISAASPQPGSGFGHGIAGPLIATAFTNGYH

As usually defined, the Ki is a dissociation constant, usually derived from enzyme kinetics or from competition with a known ligand. The term IC50 denotes the concentration that inhibits the measured activity by half. As for `CC(C)(C)c1ccc(C(=O)Nc2ccc3[nH]c(C(=O)NN)cc3c2)cc1` [KH-39E, 4-(tert-butyl)-N-(2-(hydrazinecarbonyl)-1H-indol-5-yl)benzamide], the Ki in experiment [1] was 1.67 µM; in experiment [3], above 20 µM. Moreover, 13.5 µM corresponded to half-maximal inhibition in experiment [2] (IC50).

Consider `CC(C)(C)c1ccc(C(=O)Nc2ccc3sc(C(=O)NO)cc3c2)cc1` [KH-43, 5-(4-(tert-butyl)benzamido)-N-hydroxybenzo[b]thiophene-2-carboxamide], for which the Ki in experiment [1] is 0.44 µM; on Musashi 2 (Msi2) (setting [4]), 2.9 µM; in experiment [3], 2.7 µM. The compound also had an IC50 in experiment [2] of 3.71 µM.

Regarding `CC(C)(C)c1ccc(C(=O)Nc2ccc3sc(C(=O)O)cc3c2)cc1` [KH-43A, 5-(4-(tert-butyl)benzamido)benzo[b]thiophene-2-carboxylic acid], the Ki in experiment [1] is 5.08 µM; on Musashi 2 (Msi2) (setting [4]) it was 5.25 µM; in experiment [3] it was above 20 µM. The IC50 in experiment [2] was 90.5 µM.

With `O=C(/C=C/c1cc2cc(NC(=O)C3CCCCC3)ccc2s1)NO` [KH-46, (E)-N-(2-(3-(hydroxyamino)-3-oxoprop-1-en-1-yl)benzo[b]thiophen-5-yl) cyclohexanecarboxamide], the Ki in experiment [1] is 1.29 µM; on Musashi 2 (Msi2) (setting [5]), above 20 µM; in experiment [3], 5.84 µM. Half-maximal inhibition in experiment [2] (IC50) was put at 3.5 µM.

Take `O=C(O)/C=C/c1cc2cc(NC(=O)C3CCCCC3)ccc2s1` [KH-46A, (E)-3-(5-(cyclohexanecarboxamido)benzo[b]thiophen-2-yl)acrylic acid]: the inhibitory constant (Ki) was 4.27 µM in experiment [1], above 20 µM on Musashi 2 (Msi2) (setting [5]) and above 20 µM in experiment [3]. Besides, the IC50 in experiment [2] was above 100 µM.

Regarding `O=C(/C=C/c1cc2cc(NC(=O)c3ccccn3)ccc2s1)NO` [KH-47, (E)-N-(2-(3-(hydroxyamino)-3-oxoprop-1-en-1-yl)benzo[b]thiophen-5-yl) picolinamide hydrochloride], the Ki was 4.44 µM in experiment [1], above 20 µM on Musashi 2 (Msi2) (setting [5]) and above 20 µM in experiment [3]. Also, in experiment [2], the IC50 came out at 3.11 µM.

For `O=C(O)/C=C/c1cc2cc(NC(=O)c3ccccn3)ccc2s1` [KH-47A, (E)-3-(5-(picolinamido)benzo[b]thiophen-2-yl)acrylic acid hydrochloride], the values for the Ki (in experiment [1]; on Musashi 2 (Msi2) (setting [4]); in experiment [3]) were 1.81 µM, 6.8 µM and above 20 µM, respectively. The compound further showed an IC50 in experiment [2] of 18.2 µM.

As to `CC(C)(C)c1ccc(C(=O)Nc2ccc3[nH]c(/C=C/C(=O)NO)cc3c2)cc1` [KH-48, (E)-4-(tert-butyl)-N-(2-(3-(hydroxyamino)-3-oxoprop-1-en-1-yl)-1H-indol-5-yl)benzamide], the Ki in experiment [1] came out at 0.34 µM; at Musashi 2 (Msi2) (setting [4]), 3.91 µM; in experiment [3] it was 8.79 µM. The IC50 in experiment [2] stood at 2.24 µM.

As for `CC(C)(C)c1ccc(C(=O)Nc2ccc3[nH]c(/C=C/C(=O)O)cc3c2)cc1` [KH-48A, (E)-3-(5-(4-(tert-butyl)benzamido)-1H-indol-2-yl)acrylic acid], the Ki in experiment [1] is 3.35 µM; on Musashi 2 (Msi2) (setting [4]) it was 4.8 µM; in experiment [3], above 20 µM. This compound also returned an IC50 in experiment [2] above 100 µM.

In the case of `CN(C)c1ccc(C(=O)Nc2ccc3[nH]c(/C=C/C(=O)NO)cc3c2)cc1` [KH-52, (E)-4-(dimethylamino)-N-(2-(3-(hydroxyamino)-3-oxoprop-1-en-1-yl)-1H-indol-5-yl)benzamide], the Ki in experiment [1] was 0.69 µM; at Musashi 2 (Msi2) (setting [5]), above 20 µM; in experiment [3], above 20 µM. In experiment [2], this compound gave an IC50 of 8.91 µM.

As for `CN(C)c1ccc(C(=O)Nc2ccc3[nH]c(/C=C/C(=O)O)cc3c2)cc1` [KH-52A, (E)-3-(5-(4-(dimethylamino)benzamido)-1H-indol-2-yl)acrylic acid], the Ki in experiment [1] was 7.76 µM; at Musashi 2 (Msi2) (setting [4]) it was 27.1 µM; in experiment [3], above 20 µM. The same compound had a concentration for half-maximal inhibition (IC50) in experiment [2] above 100 µM.

Take `O=C(Nc1ccc2[nH]c(C(=O)O)cc2c1)c1ccccn1` [KH-56A, 5-(picolinamido)-1H-indole-2-carboxylic acid hydrochloride]: the Ki (in experiment [1]; at Musashi 2 (Msi2) (setting [5]); in experiment [3]) was above 20 µM each time. The same compound displayed an IC50 in experiment [2] above 100 µM.
